Data from ChEMBL document CHEMBL4680163, “Discovery of potent epidermal growth factor receptor (EGFR) degraders by proteolysis targeting chimera (PROTAC)” (Eur J Med Chem, 2020).
Active and inactive are the calls of the source. The calls are words filed in the database; no cut-off is given here.

Columns and labels:
HCC827 [1] = experiment: Induction of cell cycle arrest in human HCC827 cells assessed as accumulation in G1 phase at 1 uM incubated for 32 hrs by PI staining based flow cytometry analysis (reference value: 50.48 %); format: functional
HCC827 [2] = experiment: Antiproliferative activity against human HCC827 cells harboring EGFRDel19 mutant assessed as reduction in cell viability incubated for 72 hrs by MTT assay; format: functional, cell-based; settings: HCC827, 72 h
NCI-H1975 [3] = experiment: Antiproliferative activity against human NCI-H1975 cells harboring EGFR L858/T790M mutant assessed as reduction in cell viability incubated for 72 hrs by MTT assay; format: functional, cell-based; settings: NCI-H1975, 72 h
A549 [4] = experiment: Antiproliferative activity against human A549 cells harboring EGFR assessed as reduction in cell viability incubated for 72 hrs by MTT assay; format: functional, cell-based; settings: A549, 72 h
A-431 = experiment: Antiproliferative activity against human A-431 cells harboring EGFR assessed as reduction in cell viability incubated for 72 hrs by MTT assay; format: functional, cell-based; settings: A-431, 72 h
[5] = (§1) Protac activity at E3 ubiquitin ligase/EGFR in human HCC827 cells assessed as increase in degradation of EGFR incubated for 48 hrs by Western blot analysis; format: cell-based; settings: HCC827, 48 h
HCC827 [6] = experiment: as §1; format: cell-based
HCC827 [7] = experiment: Protac activity at E3 ubiquitin ligase/EGFR in human HCC827 cells assessed as increase in degradation of EGFR measured upto 96 hrs by Western blot analysis; format: cell-based; settings: time hrs <=96, TDE = time-dependent effect
HCC827 [8] = experiment: Protac activity at E3 ubiquitin ligase/EGFR in human HCC827 cells assessed as increase in degradation of EGFR at 100 nM incubated for 96 hrs by Western blot analysis relative to control; format: cell-based
[9] = molecular target: Epidermal growth factor receptor (Homo sapiens) (UniProt P00533); experiment: Inhibition of EGFR in human HCC827 cells assessed as reduction in EGFR phosphorylation incubated for 36 hrs by Western blot analysis; format: cell-based; settings: dose 0.1-1 µM
HCC827 [10] = experiment: Protac activity at E3 ubiquitin ligase/EGFR in human HCC827 cells assessed as increase in degradation of EGFR at 0.1 uM pretreated with (1-(6-(5-(4-(dimethylamino)piperidin-1-yl)pyridin-2-ylamino)-2-(4-fluorophenylamino)pyrido[3,4-d]pyrimidin-4-yl)piperidin-4-yl)methanol and incubated for 6 hrs followed by compound addition and measured after 32 hrs by Western blot analysis; format: cell-based
HCC827 [11] = experiment: Protac activity at E3 ubiquitin ligase/EGFR in human HCC827 cells assessed as increase in degradation of EGFR at 100 nM pretreated with lenalidomide for 2 hrs followed by compound addition and measured after 48 hrs by Western blot analysis; format: cell-based
HCC827 [12] = experiment: Protac activity at E3 ubiquitin ligase/EGFR in human HCC827 cells assessed as increase in degradation of EGFR at 1 to 10 uM pretreated with MG-132 for 6 hrs followed by compound addition and measured after 30 hrs by Western blot analysis; format: cell-based; settings: dose 1-10 µM
HCC827 [13] = experiment: Protac activity at E3 ubiquitin ligase/EGFR in human HCC827 cells assessed as increase in degradation of EGFR at 1 to 10 uM pretreated with MLN-4924 for 6 hrs followed by compound addition and measured after 30 hrs by Western blot analysis; format: cell-based; settings: dose 1-10 µM
NCI-H1975 [14] = experiment: Protac activity at E3 ubiquitin ligase/EGFR in human NCI-H1975 cells harboring EGFR T790M mutant assessed as increase in degradation of EGFR at 0.1 to 10 uM incubated for 48 hrs by Western blot analysis; format: cell-based; settings: dose 0.1-10 µM
A549 [15] = experiment: Protac activity at E3 ubiquitin ligase/EGFR in human A549 cells harboring wild type EGFR assessed as increase in degradation of EGFR at 0.1 to 10 uM incubated for 48 hrs by Western blot analysis; format: cell-based; settings: dose 0.1-10 µM
HCC827 [16] = experiment: Induction of apoptosis in human HCC827 cells assessed as viable cells at 0.1 uM incubated for 32 hrs by annexin V-FITC and PI staining based flow cytometry analysis (reference value: 76.79 %); format: functional; settings: read-out: Activity
HCC827 [17] = experiment: Induction of apoptosis in human HCC827 cells assessed as early apoptotic cells at 0.1 uM incubated for 32 hrs by annexin V-FITC and PI staining based flow cytometry analysis (reference value: 2.31 %); format: functional
HCC827 [18] = experiment: Induction of apoptosis in human HCC827 cells assessed as late apoptotic cells at 0.1 uM incubated for 32 hrs by annexin V-FITC and PI staining based flow cytometry analysis (reference value: 14.23 %); format: functional
HCC827 [19] = experiment: Induction of apoptosis in human HCC827 cells assessed as necrotic cells at 0.1 uM incubated for 32 hrs by annexin V-FITC and PI staining based flow cytometry analysis (reference value: 6.68 %); format: functional
HCC827 [20] = experiment: Induction of apoptosis in human HCC827 cells assessed as viable cells at 1 uM incubated for 32 hrs by annexin V-FITC and PI staining based flow cytometry analysis (reference value: 72.15 %); format: functional; settings: read-out: Activity
HCC827 [21] = experiment: Induction of apoptosis in human HCC827 cells assessed as early apoptotic cells at 1 uM incubated for 32 hrs by annexin V-FITC and PI staining based flow cytometry analysis (reference value: 2.72%); format: functional
HCC827 [22] = experiment: Induction of apoptosis in human HCC827 cells assessed as late apoptotic cells at 1 uM incubated for 32 hrs by annexin V-FITC and PI staining based flow cytometry analysis (reference value: 18.02%); format: functional
HCC827 [23] = experiment: Induction of apoptosis in human HCC827 cells assessed as necrotic cells at 1 uM incubated for 32 hrs by annexin V-FITC and PI staining based flow cytometry analysis (reference value: 7.12 %); format: functional
HCC827 [24] = experiment: Induction of cell cycle arrest in human HCC827 cells assessed as accumulation in G1 phase at 0.1 uM incubated for 32 hrs by PI staining based flow cytometry analysis (reference value: 50.48 %); format: functional
HCC827 [25] = experiment: Induction of cell cycle arrest in human HCC827 cells assessed as accumulation in G2 phase at 0.1 uM incubated for 32 hrs by PI staining based flow cytometry analysis (reference value: 8.25 %); format: functional
HCC827 [26] = experiment: Induction of cell cycle arrest in human HCC827 cells assessed as accumulation in S phase at 0.1 uM incubated for 32 hrs by PI staining based flow cytometry analysis (reference value: 41.26 %); format: functional
HCC827 [27] = experiment: Induction of cell cycle arrest in human HCC827 cells assessed as accumulation in G2 phase at 1 uM incubated for 32 hrs by PI staining based flow cytometry analysis (reference value: 8.25 %); format: functional
HCC827 [28] = experiment: Induction of cell cycle arrest in human HCC827 cells assessed as accumulation in S phase at 1 uM incubated for 32 hrs by PI staining based flow cytometry analysis (reference value: 41.26 %); format: functional
HCC827 [29] = experiment: Protac activity at E3 ubiquitin ligase/EGFR in human HCC827 cells assessed as increase in degradation of EGFR at 100 nM incubated for 72 hrs by Western blot analysis relative to control; format: cell-based
HCC827 [30] = experiment: Protac activity at E3 ubiquitin ligase/EGFR in human HCC827 cells assessed as increase in degradation of EGFR at 100 nM pretreated with VHL-L for 5 hrs followed by compound addition and measured after 32 hrs by Western blot analysis; format: cell-based

Chain of Epidermal growth factor receptor (Homo sapiens) (P00533 whole entry): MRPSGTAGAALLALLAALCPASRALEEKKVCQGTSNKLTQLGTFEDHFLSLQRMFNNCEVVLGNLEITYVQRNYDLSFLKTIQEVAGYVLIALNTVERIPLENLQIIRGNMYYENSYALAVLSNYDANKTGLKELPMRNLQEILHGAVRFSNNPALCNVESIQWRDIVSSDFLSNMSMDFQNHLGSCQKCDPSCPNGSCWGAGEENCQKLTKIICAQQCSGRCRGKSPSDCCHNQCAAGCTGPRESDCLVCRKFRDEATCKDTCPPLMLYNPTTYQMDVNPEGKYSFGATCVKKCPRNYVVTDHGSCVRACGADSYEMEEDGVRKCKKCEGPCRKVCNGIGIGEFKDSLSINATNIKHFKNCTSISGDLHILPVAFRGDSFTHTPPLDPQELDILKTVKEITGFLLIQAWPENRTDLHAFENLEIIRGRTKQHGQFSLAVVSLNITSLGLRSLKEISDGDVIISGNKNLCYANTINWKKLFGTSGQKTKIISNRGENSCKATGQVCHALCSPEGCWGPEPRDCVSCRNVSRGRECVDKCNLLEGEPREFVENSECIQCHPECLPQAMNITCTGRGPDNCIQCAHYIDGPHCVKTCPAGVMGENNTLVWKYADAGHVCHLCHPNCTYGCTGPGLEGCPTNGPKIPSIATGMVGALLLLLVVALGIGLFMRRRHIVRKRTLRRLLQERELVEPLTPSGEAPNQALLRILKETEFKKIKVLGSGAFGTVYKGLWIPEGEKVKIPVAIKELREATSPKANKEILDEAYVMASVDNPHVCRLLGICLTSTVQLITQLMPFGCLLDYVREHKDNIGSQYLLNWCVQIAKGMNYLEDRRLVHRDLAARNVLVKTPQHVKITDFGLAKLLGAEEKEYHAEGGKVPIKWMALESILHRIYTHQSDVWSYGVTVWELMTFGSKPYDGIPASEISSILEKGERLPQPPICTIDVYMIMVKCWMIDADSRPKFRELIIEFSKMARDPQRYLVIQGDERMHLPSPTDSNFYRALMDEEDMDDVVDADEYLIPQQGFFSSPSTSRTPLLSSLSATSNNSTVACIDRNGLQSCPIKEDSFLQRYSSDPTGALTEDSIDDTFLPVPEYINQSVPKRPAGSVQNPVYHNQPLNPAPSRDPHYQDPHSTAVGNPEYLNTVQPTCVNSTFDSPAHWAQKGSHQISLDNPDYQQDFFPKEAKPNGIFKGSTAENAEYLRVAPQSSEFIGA

Structure (SMILES) | IC50 (HCC827 [2]) | Activity (HCC827 [1]) | IC50 (NCI-H1975 [3]) | IC50 (A549 [4]) | IC50 (A-431) | inhibition [9] | viability at 0.1 µM (HCC827 [16]) | Activity (HCC827 [17]) | Activity (HCC827 [18]) | Activity (HCC827 [19]) | viability at 1 µM (HCC827 [20]) | Activity (HCC827 [21]) | Activity (HCC827 [22]) | Activity (HCC827 [23]) | Activity (HCC827 [24]) | Activity (HCC827 [25]) | Activity (HCC827 [26]) | Activity (HCC827 [27]) | Activity (HCC827 [28]) | other results
O=C1CCC(N2Cc3c(NC(=O)CCCCCCCN4CCN(c5ccc(Nc6cc7c(N8CCC(CO)CC8)nc(Nc8ccc(F)cc8)nc7cn6)nc5)CC4)cccc3C2=O)C(=O)N1 (centres undefined) | 180 nM | 81.89% | > 10000 nM | > 10000 nM | > 10000 nM | Dose-dependent effect | 59.5% | 5.93% | 26.38% | 8.21% | 35.5% | 4.16% | 49.56% | 9.74% | 82.95% | 6.26% | 10.79% | 7.47% | 10.63% | DC50 [5]: 45.2 nM; Activity (HCC827 [6]): Dose-dependent effect; Activity (HCC827 [7]): Tde; Emax (HCC827 [8]): 87%; Activity (HCC827 [10]): inactive; Activity (HCC827 [11]): inactive; Activity (HCC827 [12]): inactive; Activity (HCC827 [13]): Active; Activity (NCI-H1975 [14]): Active; Activity (A549 [15]): Active
O=C1CCC(N2Cc3c(NC(=O)CCCCCN4CCN(c5ccc(Nc6cc7c(N8CCC(CO)CC8)nc(Nc8ccc(F)cc8)nc7cn6)nc5)CC4)cccc3C2=O)C(=O)N1 (centres undefined) | > 10000 nM | – | – | – | – | – | – | – | – | – | – | – | – | – | – | – | – | – | – | –
O=C1CCC(N2Cc3c(NC(=O)CCCCCCN4CCN(c5ccc(Nc6cc7c(N8CCC(CO)CC8)nc(Nc8ccc(F)cc8)nc7cn6)nc5)CC4)cccc3C2=O)C(=O)N1 (centres undefined) | 1210 nM | – | – | – | – | – | – | – | – | – | – | – | – | – | – | – | – | – | – | –
Cc1ncsc1-c1ccc(CNC(=O)[C@@H]2C[C@@H](O)CN2C(=O)[C@@H](NC(=O)CCCCN2CCN(c3ccc(Nc4cc5c(N6CCC(CO)CC6)nc(Nc6ccc(F)cc6)nc5cn4)nc3)CC2)C(C)(C)C)cc1 | 1490 nM | – | – | – | – | – | – | – | – | – | – | – | – | – | – | – | – | – | – | –
Cc1ncsc1-c1ccc(CNC(=O)[C@@H]2C[C@@H](O)CN2C(=O)[C@@H](NC(=O)CCCCCCN2CCN(c3ccc(Nc4cc5c(N6CCC(CO)CC6)nc(Nc6ccc(F)cc6)nc5cn4)nc3)CC2)C(C)(C)C)cc1 | 220 nM | 83.15% | > 10000 nM | > 10000 nM | > 10000 nM | Dose-dependent effect | 59.7% | 7.95% | 25.73% | 6.62% | 22.4% | 4.36% | 63.29% | 9.9% | 81.94% | 6.39% | 11.67% | 8.86% | 7.99% | DC50 [5]: 34.8 nM; Activity (HCC827 [6]): Dose-dependent effect; Activity (HCC827 [7]): Tde; Emax (HCC827 [29]): 98%; Activity (HCC827 [10]): inactive; Activity (HCC827 [30]): inactive; Activity (HCC827 [12]): inactive; Activity (HCC827 [13]): Active; Activity (NCI-H1975 [14]): Active; Activity (A549 [15]): Active
CN(C)C1CCN(c2ccc(Nc3cc4c(N5CCC(CO)CC5)nc(Nc5ccc(F)cc5)nc4cn3)nc2)CC1 | – | 78.98% | – | – | – | Active | 39.5% | 8.5% | 43.7% | 8.35% | 24.9% | 4.79% | 53.88% | 16.48% | 78.84% | 7.72% | 13.43% | 7.56% | 13.43% | –

Now from value to compound, other results behind:

IC50 (HCC827 [2]) | Structure (SMILES) | Activity (HCC827 [1]) | IC50 (NCI-H1975 [3]) | IC50 (A549 [4]) | IC50 (A-431) | inhibition [9] | viability at 0.1 µM (HCC827 [16]) | Activity (HCC827 [17]) | Activity (HCC827 [18]) | Activity (HCC827 [19]) | viability at 1 µM (HCC827 [20]) | Activity (HCC827 [21]) | Activity (HCC827 [22]) | Activity (HCC827 [23]) | Activity (HCC827 [24]) | Activity (HCC827 [25]) | Activity (HCC827 [26]) | Activity (HCC827 [27]) | Activity (HCC827 [28]) | other results
710 nM | Cc1ncsc1-c1ccc(CNC(=O)[C@@H]2C[C@@H](O)CN2C(=O)[C@@H](NCCOCCOCCOCCN2CCN(c3ccc(Nc4cc5c(N6CCC(CO)CC6)nc(Nc6ccc(F)cc6)nc5cn4)nc3)CC2)C(C)(C)C)cc1 | – | 2640 nM | 6390 nM | 2320 nM | – | – | – | – | – | – | – | – | – | – | – | – | – | – | –
1450 nM | CN(C)C1CCN(c2ccc(Nc3cc4c(N5CCN(CCCCCCCC(=O)Nc6cccc7c6CN(C6CCC(=O)NC6=O)C7=O)CC5)nc(Nc5ccc(F)cc5)nc4cn3)nc2)CC1 (centres undefined) | – | – | – | – | – | – | – | – | – | – | – | – | – | – | – | – | – | – | –
340 nM | Cc1ncsc1-c1ccc(CNC(=O)[C@@H]2C[C@@H](O)CN2C(=O)[C@@H](NCCOCCOCCN2CCN(c3ccc(Nc4cc5c(N6CCC(CO)CC6)nc(Nc6ccc(F)cc6)nc5cn4)nc3)CC2)C(C)(C)C)cc1 | – | 2970 nM | – | 2460 nM | – | – | – | – | – | – | – | – | – | – | – | – | – | – | –
